{"source": "patent US20230265068A1", "about": "“TRANSIENT RECEPTOR POTENTIAL CANONICAL 3 INHIBITORS AND METHODS OF USE THEREOF” (University of Tennessee Research Foundation, priority 2020, published 2023)", "biological_target": "T1, TRPC3 (Homo sapiens, UniProt Q13507)", "T1 sequence (Q13507 1-921)": "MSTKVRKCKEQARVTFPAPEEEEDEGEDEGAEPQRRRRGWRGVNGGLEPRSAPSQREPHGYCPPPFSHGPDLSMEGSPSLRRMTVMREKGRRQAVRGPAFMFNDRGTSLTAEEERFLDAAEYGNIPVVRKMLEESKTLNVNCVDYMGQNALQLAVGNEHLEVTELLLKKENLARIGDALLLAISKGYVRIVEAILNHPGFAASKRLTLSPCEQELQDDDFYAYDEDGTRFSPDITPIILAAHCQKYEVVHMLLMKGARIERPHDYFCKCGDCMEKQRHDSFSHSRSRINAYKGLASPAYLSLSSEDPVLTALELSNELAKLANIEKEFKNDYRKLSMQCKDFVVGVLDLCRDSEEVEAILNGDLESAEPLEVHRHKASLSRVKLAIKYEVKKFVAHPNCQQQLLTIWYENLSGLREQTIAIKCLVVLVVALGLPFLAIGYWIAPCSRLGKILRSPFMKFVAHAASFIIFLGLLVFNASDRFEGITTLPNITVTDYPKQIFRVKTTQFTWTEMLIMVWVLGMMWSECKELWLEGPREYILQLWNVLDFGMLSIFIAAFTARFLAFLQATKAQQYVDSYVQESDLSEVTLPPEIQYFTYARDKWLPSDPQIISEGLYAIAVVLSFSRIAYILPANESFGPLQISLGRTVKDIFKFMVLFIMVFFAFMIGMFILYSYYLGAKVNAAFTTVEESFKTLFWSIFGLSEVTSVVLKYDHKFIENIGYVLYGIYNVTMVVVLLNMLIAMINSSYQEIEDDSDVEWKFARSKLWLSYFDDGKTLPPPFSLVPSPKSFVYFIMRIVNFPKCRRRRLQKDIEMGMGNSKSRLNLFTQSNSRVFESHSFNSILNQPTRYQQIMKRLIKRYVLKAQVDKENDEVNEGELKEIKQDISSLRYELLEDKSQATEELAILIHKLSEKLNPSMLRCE", "test": "LC-MS detection of compound bound to affinity-purified TRPC3 protein after size-exclusion chromatography", "assay_type": "binding", "parameters": "made in house", "conditions": "1 h incubation, free compound removed", "method": "LC-MS technique was employed to find some evidence of the on-target engagement of compound 22 with TRPC3. Biochemical quantities of affinity-purified TRPC3 protein was successfully generated before and was confirmed by SDS-PAGE.21 After incubation of compound 22 with TRPC3 protein for 1 h, repeated size-exclusion chromatography was used to completely remove free compound 22 from the protein-bound fraction. Methanol was then added to this complex to denature the protein and extract the bound compound."}
{"smiles": "CCNC(=O)c1cnn(-c2ccc(-n3ccc(Cl)c(Cl)c3=O)cc2)c1C(F)(F)F", "note": "[Compound 22]", "values": [{"measurement": "binding to TRPC3 protein (compound detected by LC-MS in extract of purified complex)", "value": "direct binding"}]}
